Patent US20140096445A1, “METHOD OF CULTIVATION IN WATER DEFICIT CONDITIONS” (SYNGENTA PARTICIPATIONS AG, priority 2011, published 2014)
Marks after values point to notes of the source that are not given here.

How the values were obtained:
Type in all cases: in vivo
[1] = tested on: corn; experiment: Greenhouse subsurface drip irrigation trial, deficit irrigated, Examples 4-8; settings: for % Yield Increase by Product over Untr./50% Irr. / Yield: SDI chemigated at V3/V4, 50% irrigated deficit, Azoxystrobin 261, PPZ 126, TXP 250, PBZ 12.5, TMX 70 gai/ha; for Yield compared with the control, in words: water stress regime (50% irrigated), SDI
Protocol: A greenhouse subsurface drip irrigation trial was conducted on corn to evaluate treatment effects on yield in fully irrigated vs. deficit irrigated conditions. In this experiment, standardized growth conditions were applied across all corn treatments including: soil-water availability, soil texture and composition, soil chemical and physical properties, meteorological and environmental parameters, and plant nutrition in a greenhouse. No indication of plant disease or pest damage was observed over the course of the study and no pest management program was necessary. A homogeneous sand-organic matter soil mixture (0.18% organic matter) was used as the growth medium in 55-gal containers. These containers were used as a weighing lysimeter, where daily changes in system weight were used to calculate plant transpiration. Four corn plants were grown in each 55-gal container. Three 55-gal containers (12 plants total) made up each treatment. All irrigation and chemical treatments were applied via sub-surface irrigation. Chemical treatments consisted of: azoxystrobin (Quadris), paclobutrazol (Trimmit), trinexapac-ethyl (Moddus), and propiconazole (Tilt) at maximum labeled rates.
Corn plants were grown from seed and transplanted in the 55-gal drums approximately 14 days after planting. Uniform adequate irrigation was applied up to growth stage V3/V4 to ensure plant establishment. Chemical treatment applications were applied at growth stage V3/V4 via sub-surface chemigation. At stage V3/V4, irrigation was decreased to replicate deficit water conditions across all treatments for the remainder of the study period. Irrigation was managed daily to maintain 50% plant-available water. Visual signs of abiotic plant stress were observed approximately 30 days after chemical application. All corn plants were grown to yield and cobs were harvested when kernels were uniformly dry (15% moisture content). Root architecture, specifically relative number of fine roots, was measured at within 2 weeks of harvest using a digital imaging technique. Fine roots are related to water uptake productivity, which is directly tied to the ability of the plant to access soil-water under stress.

[2] = tested on: soybean; experiment: Lateral-move sprinkler irrigation field study on soybean, Examples 29-30; settings: for % IWUE Increase over Untreated / % Seed Mass Increase over Untreated / % Yield Increase over Untreated / IWUE (water productivity) / Seed Mass / Yield: foliar 150 gai/ha, average of 60% & 100% irrigated
[3] = tested on: corn; experiment: Subsurface drip irrigation (SDI) chemigation field study, limited (deficit) vs fully irrigated, Examples 1-2; settings: 261 gai/ha, 50% irrigated deficit
[4] = tested on: soybean; experiment: Sprinkler irrigation field study on soybean yield and WUE, Table 14 (treatments 31-32)
[5] = tested on: corn; experiment: SDI chemigation field study under dryland/rainfed conditions, Examples 15-16; settings: 261 gai/ha, 0% irrigated rainfed/dryland
[6] = tested on: corn; experiment: Lateral-move sprinkler irrigation field study, 112 day maturity corn hybrid, Examples 24-25; settings: 250 gai/ha, 60% irrigated deficit
Protocol: Testing Procedure: A sprinkler irrigation field study was conducted on a deep silt loam soil using a 112 day maturity corn hybrid. This trial was conducted to quantify the impact of azoxystrobin and trinexapac-ethyl on grain yield, and water productivity of corn under limited (deficit) and fully-irrigated settings. The study utilized a lateral-move sprinkler irrigation (LMS) system. The study was replicated three times in an […]. Each main plot was approximately 185 sq. meters. Irrigation control panels, chemical injection pumps, and filters were housed at the irrigation well house to manage irrigation and chemigation events.
Soil water status was monitored throughout the growing season using soil moisture sensors. Corn seed was planted with a precision planter at a depth of 2 inches and rows spaced at 30 inches. The planting population was 30,000 seeds per acre. Testing parameters, and irrigation levels were conducted according to the Kansas State University experimental procedure [see e.g., (1) Lamm, F. R., A. J. Schlegel, and G. A. Clark. 2003. Development of a Best Management Practice for Nitrogen Fertigation of Corn Using SDI. Appl. Engr in Agric. and (2) Lamm, F. R., H. L. Manges, L. R. Stone, A. H. Khan, and D. H. Rogers. 1995. Water requirement of subsurface drip-irrigated corn in northwest Kansas. Trans. ASAE, 38(2):441-448.]. Moisture levels, irrigation levels, evapotranspiration, and plant health were measured throughout the growing season. Climatic variables were measured (air temperature, rainfall, solar and net radiation, relative humidity, rainfall, wind speed and direction) throughout the season. Irrigation for the fully irrigated treatments was scheduled according to need by a climatic water budget using calculated evapotranspiration as a withdrawal and with rainfall and irrigation as deposits. Irrigation amounts for each event for the fully irrigated plots were generally 0.96 inches for each event. The deficit irrigation treatments were scheduled at approximately 60% of the fully irrigated plots. Volumetric soil water content was measured in one-foot increments to a depth of 8 ft on an approximately weekly basis throughout the crop season to determine total water use. Crop water use was calculated as the sum of irrigation, precipitation and changes in soil water between the initial and final soil water sampling dates. Water productivity (WUE) was calculated as the crop yield divided by the seasonal water use (Water Productivity (WP)=Yield/ETc). […] Crop yield from each replication was recorded after harvest and adjusted to 15% moisture content. Corn yield components of crop grain yield, plants/area, ears/plant, and kernel weight were measured by hand harvesting a representative sample.

[7] = Azoxy 150 gai/ha foliar, 2 applications, alone or + Acibenzolar-S-methyl 10 gai/ha, 60% irrigated deficit

## CO/C=C(/C(=O)OC)c1ccccc1Oc1cc(Oc2ccccc2C#N)ncn1 [Azoxystrobin, azoxystrobin]
[1]
  % Yield Increase by Product over Untr./50% Irr.: +12.5% Incr. over Untr./50% Irr.
  Yield: 2077† Kg/Ha
  Yield compared with the control, in words: statistically higher than the control
[2]; all Quadris treatments
  Seed mass, statistical statement: Statistically significant difference in seed mass
[2]; one application
  % IWUE Increase over Untreated: +2% over
  % Seed Mass Increase over Untreated: +3% over
  % Yield Increase over Untreated: +2% over
  IWUE (water productivity): 129 lbs/acre-inch
  Seed Mass: 148a mg
  Yield: 48.4 Bu./acre
[2]; soybean, sprinkler irrigation
  Water productivity, in words: increase in water productivity
[2]; two applications
  % IWUE Increase over Untreated: +6% over
  % Seed Mass Increase over Untreated: +6% over
  % Yield Increase over Untreated: +5% over
  IWUE (water productivity): 133 lbs/acre-inch
  Seed Mass: 151a mg
  Yield: 49.7 Bu./acre
[3]; SDI chemigated twice (V8 & V8+14da.)
  Yield: 217 Bu./acre
[3]; SDI chemigated
  Azoxystrobin % IWUE Increase over Untr./50% Irr.: +40% incr.
  Azoxystrobin % IWUE Increase over Untr./100% irr.: +114% incr.
  Azoxystrobin % Yield Increase over Untr./50% Irr.: +11% incr.
  Azoxystrobin % Yield Increase over Untr./100% irr.: +2.4% incr.
  IWUE (irrigation water use efficiency): 22.9 Bu./inch
[3]; SDI chemigated, listed as Quadris
  Azoxystrobin % IWUE Increase over Untr./100% irr.: 114%
[3]; foliar applied twice (V8 & V8+14da.)
  Yield: 211 Bu./acre
[3]; foliar applied
  Azoxystrobin % IWUE Increase over Untr./50% Irr.: +29% incr.
  Azoxystrobin % IWUE Increase over Untr./100% irr.: +97% incr.
  Azoxystrobin % Yield Increase over Untr./50% Irr.: +11% incr.
  Azoxystrobin % Yield Increase over Untr./100% irr.: +0% incr. over
  IWUE (irrigation water use efficiency): 21.1 Bu./inch
[4]; [7]
  % WUE Increase over the 100% irrigated Control: 11% Increase
  Treatment % Yield Increase over 60% Untreated: +6% Incr.
  Treatment % Yield Increase over 100% Untreated: +11% Incr.
  WUE (water productivity): 4.1 bushels/acre-inch
  Yield: 72 Bu./acre
[4]; Azoxystrobin: foliar (2 applications) at 60% & 100% irrigated
  Yield compared with the untreated, in words: significant differences in yield
[4]; water deficit regime
  WUE differences, in words: Good WUE differences
[5]; SDI chemigated (V6 & R1)
  Yield: 166.2 Bu./acre
[5]; SDI chemigated
  Azoxystrobin % CWUE Increase over Untr./0% irr.: +142% incr over
  Azoxystrobin % Yield Increase over Untr./0% irr.: +9.6% incr over
  CWUE (crop water use efficiency): 1.125 Bu./inch
[5]; foliar applied (V6 & R1)
  Yield: 161.8 Bu./acre
[5]; foliar applied
  Azoxystrobin % CWUE Increase over Untr./0% irr.: +108% incr over
  Azoxystrobin % Yield Increase over Untr./0% irr.: +6.7% incr over
  CWUE (crop water use efficiency): 0.965 Bu./inch

## CCOC(=O)C1CC(=O)C(=C(O)C2CC2)C(=O)C1 (stereo not shown) [TXP, trinexapac-ethyl]
[1]
  % Yield Increase by Product over Untr./50% Irr.: +15.6% Incr. over Untr./50% Irr.
  Yield: 2133† Kg/Ha
  Yield compared with the control, in words: statistically higher than the control
[6]
  % IWUE Increase over Untr./60% irr.: +5% over
  % Yield Increase over Untr./60% irr.: +3.5% over
  IWUE (water productivity): 484 lbs/acre inch
  Yield: 209 Bu./acre
